# Reference: US20160250285A1, “NEUROPROTECTIVE PEPTIDES” (priority 2013, published 2016)
# Read-outs that look alike come from different tables or passages of the source. Peptide text beside a SMILES is read from it.
# Columns and labels:
# [1] = tested on: primary cortical neuronal cultures; conditions: for neuroprotection, milder insult: FIG. 1i, comparison at 0.5 μM and 1 μM; for neuroprotection (neuronal viability): peptide 15 min prior to and during glutamic acid exposure, viability 24 h, MTS
# Procedure: Briefly, cortical tissue from E18-E19 Sprague-Dawley rats was dissociated in Dulbecco's modified Eagle medium (DMEM; Invitrogen, Australia) supplemented with 1.3 mM L-cysteine, 0.9 mM NaHCOa, 10 units/ml papain (Sigma, USA) and 50 units/ml DNase (Sigma) and washed in cold DMEM/10% horse serum. Neurons were resuspended in Neurobasal (Invitrogen) containing 2% B27 supplement (B27; Invitrogen). Before seeding, 96-well sized glass wells (6 mm diameter, ProTech, Australia) or 96-well plastic plates (ProSciTech, Australia) were coated with poly-D-lysine overnight ([…]: 50 mg/mL; 70-150 K, Sigma). […] Neurons were plated to obtain ≈10,000 viable neurons for each well on day in vitro 11-12. […] On day in vitro 4 one third of the culture medium was removed and replaced with fresh Neurobasal/2% B27 containing the mitotic inhibitor, cytosine arabinofuraNOside (1 mM final concentration; Sigma). On day in vitro 8 one half of the culture medium was replaced with Neurobasal/2% B27.
# To induce excitotoxicity, 50 μl of Neurobasal/2% B27 containing glutamic acid (200 μM) or kainic acid (400 μM) or NMDA (200 μM) was added to the culture wells (100 μM glutamic acid, 200 μM kainic acid and NMDA 100 μM final concentration). Cultures were incubated at 37° C. in the CO2 incubator for 5 minutes for glutamic acid, 45 minutes for kainic acid and 10 minutes for NMDA exposure, after which time the media was replaced with 100 μl of 50% Neurobasal/2% N2 supplement (Invitrogen) and 50% balanced salt solution (BSS; see below). Cultures were incubated for a further 24 hours at 37° C. in the CO2 incubator. The untreated controls with or without glutamic acid or kainic acid treatment received the same wash steps and media additions.
# Following this step, cultures were treated as described above. Untreated controls with or without glutamic acid exposure received the same wash steps and media additions. In addition, a post-glutamic acid exposure CPP treatment (5 μM) experiment was performed for the R9 peptide and the JNKI-1D-TAT control peptide.
# For pre-glutamic acid exposure experiments, neurons were exposed to peptide(s) for a 10 minute period, immediately before or 1, 2, 3, 4 or 5 hours prior to glutamic acid exposure. […] At the relevant peptide pre-treatment time, media was removed and replaced with 100 μl of Neurobasal/2%. […] Following 5-minute glutamic acid exposure, neuronal culture wells were treated as described above. For all experiments untreated controls with or without glutamic acid treatment underwent the same incubation steps and media additions.
# Heparin (for injection) was obtained from Pfizer (1000 IU/ml). Two different heparin experiments were performed: 1. Peptides were incubated with heparin (20 IU/ml) in Neurobasal/B27 for 5 minutes at room temperature, before addition to culture wells (50 μl) for 15 minutes at 37° C. in the CO2 incubator. Following the incubation period, media in wells was removed and replaced with 100 μl of Neurobasal/2% B27 containing glutamic acid (100 μM), and subsequently treated as described above; 2. Media in wells was replaced with Neurobasal/2% B27 containing heparin (50 μl; 40 IU/ml) and incubated for 5 minutes at 37° C. in the CO2 incubator. After the incubation period, peptides or glutamate receptor blockers (MK801/CNQX) in Neurobasal/2% B27 (50 μl) were added to the culture wells and cultures incubated for a further 10 minutes at 37° C. in the CO2 incubator. Following the incubation period, media in wells was removed and replaced with 100 μl of Neurobasal/2% B27 containing glutamic acid (100 μM), and subsequently treated as described above. For all experiments, non-heparin treated peptide controls with glutamic acid treatment underwent the same incubation steps and media additions.
# Twenty-four hours after insult, neuronal cultures were examined by light microscopy for qualitative assessment of neuronal cell viability.
# [2] = tested on: intracellular calcium influx in neuronal cultures; test: Intracellular calcium influx (Fura-2 AM) after glutamic acid; format: cell-based, rat; conditions: peptide 5 μM for 10 min, removed before 100 μM glutamic acid (FIG. 44)
# Procedure: Fura-2 AM was used for intracellular calcium assessment. Representative fluorescent Fura-2 AM tracers; fluorescence intensity (FI) of neuronal cultures 30 sec before and following addition (arrow) of glutamic acid (100 μM final concentration). Peptides or glutamate receptor blockers were added to neuronal cultures for 10 min and removed (time 0) before glutamic acid. Values are mean±SE; n=3. Peptide concentration was 5 μM.
# Briefly, cortical tissue from E18-E19 Sprague-Dawley rats was dissociated in Dulbecco's modified Eagle medium (DMEM; Invitrogen, Australia) supplemented with 1.3 mM L-cysteine, 0.9 mM NaHCOa, 10 units/ml papain (Sigma, USA) and 50 units/ml DNase (Sigma) and washed in cold DMEM/10% horse serum. Neurons were resuspended in Neurobasal (Invitrogen) containing 2% B27 supplement (B27; Invitrogen). Before seeding, 96-well sized glass wells (6 mm diameter, ProTech, Australia) or 96-well plastic plates (ProSciTech, Australia) were coated with poly-D-lysine overnight (50 ml/well: 50 mg/mL; 70-150 K, Sigma). Excess poly-D-lysine solution was then removed and replaced with Neurobasal (containing 2% B27; 4% fetal bovine serum; 1% horse serum; 62.5 mM glutamate; 25 mM 2-mercaptoethanol; and 30 mg/mL streptomycin and 30 mg/mL penicillin). Neurons were plated to obtain ≈10,000 viable neurons for each well on day in vitro 11-12. Neuronal cultures were maintained in a CO2 incubator (5% CO2, 95% air balance, 98% humidity) at 37° C. On day in vitro 4 one third of the culture medium was removed and replaced with fresh Neurobasal/2% B27 containing the mitotic inhibitor, cytosine arabinofuraNOside (1 mM final concentration; Sigma). On day in vitro 8 one half of the culture medium was replaced with Neurobasal/2% B27. Cultures were used on day in vitro 11 or 12 after which time they routinely consist of >97% neurons and 1-3% astrocytes (Meloni et al. 2001).
# [3] = tested on: primary cortical neuronal cultures; test: In vitro ischemia / oxygen-glucose deprivation (OGD) model, neurons; format: cell-based, rat
# [4] = tested on: permanent middle cerebral artery occlusion (MCAO) stroke model; test: Rat permanent middle cerebral artery occlusion (MCAO) stroke model; format: in vivo; conditions: 1 μmol/kg IV 30 min post-MCAO; infarct volume 24 h post-MCAO (FIGS. 5, 27)
# Procedure: Administration of peptide (DR9: rrrrrrrrr-NH2; R12, R15, R18, protamine sulphate; protamine) or vehicle (saline: 0.9% NaCl) treatment solution was performed at 30 min post-MCAO. The peptide treatment comprised DR9 in saline (600 μl) to provide an intravenous loading dose of 1 μmol/kg or 1000 nmol/kg given over 5-6 min via the right jugular vein.
# This study was approved by the Animal Ethics Committee of the University of Western Australia. Male Sprague Dawley rats weighing 270 g to 350 g were kept under controlled housing conditions with 12 hour light-dark cycle with free access to food and water. Experimental animals were fasted overnight and subjected to permanent middle cerebral artery occlusion (MCAO) as follows.
# Anaesthesia was induced with 4% isoflurane and a 2:1 mix of N2O and O2 via mask. Anaesthesia was maintained at 1.7-2% isoflurane. Cerebral blood flow (CBF) was monitored continuously using laser Doppler flowmetry (Blood FlowMeter, AD Instruments, Sydney, Australia). The probe was located 1 mm caudal and 4 mm lateral (right) to the bregma. A cannula was inserted in the right femoral artery to continuously monitor blood pressure and to provide samples for blood glucose and blood gas readings. Blood glucose was measured using a glucometer (MediSense Products, Abbott Laboratories, Bedford, Mass., USA) and blood gases were measured using a blood gas analyser (ABL5, Radiometer, Copenhagen, Denmark). Blood pressure was maintained at 80-100 mmHg. During surgery, rectal temperature was maintained at 37±0.5° C. and warming applied with a fan heater when necessary. For intravenous infusions, a length of PVC line primed with heparinised saline was tied in place in the right jugular vein, then externalised through a dorsal mid-scapular incision to a tether/swivel system (Instech Laboratories, Philadelphia, USA) designed to permit free movement.
# The right common carotid artery (CCA) was exposed via a ventral neck incision. […] The isolated section of the ECA was ligated and cauterised to create a stump. The carotid body was removed and the pterygopalatine artery was ligated. A 4-0 nylon monofilament with a 0.39 mm diameter silicone tip (Doccol, Redlands, Calif., USA) was inserted through the ECA stump into the CCA and advanced rostrally into the internal carotid artery (ICA) until the laser Doppler flowmetry recorded a >30% decrease from baseline of cerebral blood flow. The monofilament was secured in two places (at the base of the ECA stump and on the ICA) for the remainder of the experiment. Animals were given post-operative analgesia consisting of pethidine (3 mg/kg intramuscular) and bupivacaine (1.5 mg/kg subcutaneously) at head and leg incision sites.
# Post-surgery animals were allowed to recover in a climate-controlled chamber and their core body temperature monitored and maintained at 37±0.5° C. by a cooling/heating fan when required for 3-4 hours.
# Animals were sacrificed 24 hours post-MCAO with intra-peritoneal injections of sodium pentobarbitone (900 mg/kg). […] Slices were scanned and images were analysed by an operator blind to treatment status using ImageJ 3rd edition (NIH, USA). The total infarct volume was determined by adding the areas of infarcted tissue on both sides of the 2 mm sections. These measured areas were multiplied by half slice thickness (1 mm), and corrected for cerebral oedema by multiplying the ratio of affected to normal hemisphere areas. […]
molecule,measurement,setting,value
"N=C(N)NCCC[C@H](N)C(=O)O [Peptide R1, H-R-OH]","neuroprotection, milder insult",[1],ineffective
same,neuroprotection (neuronal viability),[1],no to little neuroprotection
same,IC50,"[1]; read-out: IC50: Glutamic acid model, Table 4, polyarginine peptides, from dose response graph FIG. 1e",> 5 µM
"N=C(N)NCCC[C@H](NC(=O)[C@H](CCCNC(=N)N)NC(=O)[C@@H](N)CCCNC(=N)N)C(=O)O [Peptide R3, H-RRR-OH] (H-Arg-Arg-Arg-OH)",IC50,[1],> 5 µM
same,"neuroprotection, milder insult",[1],ineffective
same,neuroprotection (neuronal viability),[1],no to little neuroprotection
"N=C(N)NCCC[C@H](NC(=O)[C@H](CCCNC(=N)N)NC(=O)[C@H](CCCNC(=N)N)NC(=O)[C@H](CCCNC(=N)N)NC(=O)[C@H](CCCNC(=N)N)NC(=O)[C@@H](N)CCCNC(=N)N)C(=O)O [Peptide R6, H-RRRRRR-OH]",IC50,[1],> 5 µM
same,"neuroprotection, milder insult",[1],ineffective
Ac-PLFAE-RRRRRRRRR-NH2 (Ac-PLFAERRRRRRRRR-NH2) [Cal/R9],neuroprotection (neuronal viability),[1],moderate to high level neuroprotection
"GRKKRRQRRRG [TAT, reference compound]",calcium influx after glutamic acid,[2],to varying degrees reduced calcium influx
same,neuroprotection when peptide washed-out prior to glutamic acid exposure,"[1]; 15 min incubation, wash-out before insult (FIG. 1c)",loss of efficacy
"H-AAVALLPAVLLALLAP-OH [kFGF, reference compound]",neuroprotection (neuronal viability),[1],ineffective
"H-AAVALLPAVLLALLAP-PPRPKRPTTLNLFPQVPRSQDT-OH (H-AAVALLPAVLLALLAPPPRPKRPTTLNLFPQVPRSQDT-OH) [kFGF-JNKI-1, reference compound]",neuroprotection (neuronal viability),[1],not neuroprotective
"H-EEEEEEEEE-RRRRRRRRR-OH (H-EEEEEEEEERRRRRRRRR-OH) [E9/R9, reference compound]",neuroprotection (neuronal viability),[1]; listed as E91R9,no protection
"H-GRKKRRQRRR-PPRPKRPTTLNLFPQVPRSQDT-OH (H-GRKKRRQRRRPPRPKRPTTLNLFPQVPRSQDT-OH) [TAT-JNKI-1, reference compound]",calcium influx after glutamic acid,[2],to varying degrees reduced calcium influx
same,neuroprotection (neuronal viability),[1],neuroprotective
"H-KETWWETWWTEWSQPKKKRKV-NH2 [Pep-1, reference compound]",IC50,[3]; 24 h,> 15 µM
same,lower concentrations at which neuroprotective,[3]; FIG. 3a,1 to 5 µM
same,neuroprotection,[3]; peptide present during in vitro ischemia and at 50% dose after (FIG. 3a),neuroprotective following in vitro ischemia at lower concentrations
H-RRERRRRSCAGCSRARGSCRSCRR-NH2 (cysteine pairing not given here) [NCXBP3],neuroprotection (neuronal viability),[1],high levels of protection
H-RRRRRRRR-OH [Peptide R8],concentration at which (significant) neuroprotection displayed,"[1]; dose response studies FIGS. 6, 7, 8",5 µM
same,neuroprotection (neuronal viability),[1],moderate to high level neuroprotection
H-RRRRRRRRRPGRVVGGRRRRRRRRR-OH [R9/tPA/R9],IC50,[1],0.29 µM
same,order of potency,"[1]; dose response studies, glutamate model",potency between R12 and R18
same,neuroprotection (neuronal viability),[1],highly effective
"H-YARAAARQARA-OH [PTD-4, reference compound]",neuroprotection (neuronal viability),[1],little to no neuroprotective properties
same,neuroprotection (neuronal viability),[1]; listed as PTA4,largely ineffective
H-rrrrrrrrr-NH2 [D-R9],calcium influx after glutamic acid,[2],to varying degrees reduced calcium influx
same,reduction of infarct volume (brain damage),[4],approximately 20%
same,effect of heparin on neuroprotective action,"[1]; heparin 20 IU/ml with peptide or 40 IU/ml on cultures (FIGS. 39, 40)",blocks neuroprotective actions
PRRRRSSRRPVRRRRRPRVSRRRRRGGRRRR [Ptm2],neuroprotection when added for 15 minutes after OGD,"[3]; FIGS. 31, 20, 22, 1 μM and 5 μM in FIG. 31",neuroprotective
same,neuroprotection in the OGD model (overall statement),[3]; discussion summary,neuroprotective
same,neuroprotection (neuronal viability),[1],neuroprotective
PRRRRSSSRPVRRRRRPRVSRRRRRGGRRRR [Ptm3],neuroprotection (neuronal viability),[1],neuroprotective
